In US11548925B2, “CACNA1H-derived tumor antigen polypeptide and use thereof” (Genoimmune Therapeutics Co., Ltd., priority 2016, dated 2023):

Legend:
[1] = tested on: H2087-TLISSLMPI (SEQ ID NO: 2) subcutaneous tumor; assay: Peptide + Freund's adjuvant vaccine in H2087-[…] subcutaneous tumor model; type: in vivo, NOD/SCID mice; conditions: peptide 100 μg/mouse + Freund's adjuvant s.c., 4 immunizations; vs adjuvant alone and wild-type peptide
Procedure: (§1) 600-900 ml of anticoagulated peripheral blood was collected from healthy volunteers for isolating peripheral blood mononuclear cells (PBMCs) via Ficoll. Cells were collected for use. 2×10^7 PBMCs per 0.5 ml was intraperitoneally injected into each of 300 NOD SCID mice without immune leakage to perform human immune reconstitution in NOD SCID mice. After 4 weeks, the mice were selected to be inoculated with the human lung cancer cell line.
The human non-small cell lung adenocarcinoma cell line H2087-[…] (SEQ ID NO: 2) as established in Example 7 was cultured in DMEM medium containing 10% fetal bovine serum, 100 U/mL penicillin and 100 U/mL streptomycin in an incubator at 37° C., 5% CO2. H2087-[…] (SEQ ID NO: 2) tumor cells were collected, centrifuged at 1500 rpm for 5 min, and washed 3 times with sterile physiological saline. The tumor cells were diluted appropriately. […] The long diameter a and the short diameter b of the tumor were measured with a vernier caliper every 2-3 days and the size of the tumor was calculated as a*b*b/2. The mice and tumors were weighed and recorded every day. […] The tumor volume and the survival rate of mice were recorded every 2 days.
The H2087-[…] […] The longest diameter (a) and the shortest diameter (b) of a tumor were measured with a vernier caliper every 2 days. Tumor volume was calculated as: ½×length×width^2. […]

[2] = tested on: H2087-TLISSLMPI (SEQ ID NO: 2) subcutaneous tumor; assay: DC vaccine infected with recombinant lentivirus containing peptide gene in H2087-[…] tumor model; type: in vivo, NOD/SCID mice; conditions: DC infected with lentivirus carrying peptide gene, 2 injections
Text: The following DNA sequences were synthesized: “[…]” (SEQ ID NO: 8), encoding the wild-type peptide […] (SEQ ID NO: 1); “[…]” (SEQ ID NO: 9), encoding the mutant peptide […] (SEQ ID NO: 2); “[…]” (SEQ ID NO: 10), encoding the SEQ ID NO: 2 […]'s variant peptide […] (SEQ ID NO: 3); “[…]” (SEQ ID NO: 11), encoding the SEQ ID NO: 2 […]'s variant peptide […] (SEQ ID NO: 4); “[…]” (SEQ ID NO: 12), encoding the SEQ ID NO: 2 […]'s variant peptide […] (SEQ ID NO: 5); “[…]” (SEQ ID NO: 13), encoding the SEQ ID NO: 2 […]'s variant peptide […] (SEQ ID NO: 6); and “[…]” (SEQ ID NO: 14), encoding the SEQ ID NO: 2_[…]'s variant peptide […] (SEQ ID NO: 7). The wild-type peptide […] (SEQ ID NO: 1), the mutant peptide […] (SEQ ID NO: 2) and the mutant peptide SEQ ID NO: 2 […]'s variant peptides were constructed into the lentiviral vector pHBLV-Puro, respectively, to name as pHBLV-Puro-[…] (SEQ ID NO: 1), pHBLV-Puro-[…] (SEQ ID NO: 2), pHBLV-Puro-[…] (SEQ ID NO: 3), pHBLV-Puro-[…] (SEQ ID NO: 4), pHBLV-Puro-[…] (SEQ ID NO: 5), pHBLV-Puro-[…] (SEQ ID NO: 6) and pHBLV-Puro-[…] (SEQ ID NO: 7), respectively. The seven lentiviral constructs were co-transfected into 293T cells with helper plasmids pSPAX2 and pMD2G for packaging, and lentiviruses of the wild-type peptide […] (SEQ ID NO: 1), the mutant peptide […] (SEQ ID NO: 2) and the mutant peptide's variant peptides were obtained.
as §1, with “After 4 weeks, the mice were selected to be inoculated with the human lung cancer cell line.” left out
The human non-small cell lung adenocarcinoma cell line H2087-[…] […] The long diameter a and the short diameter b of the tumor were measured with a vernier caliper every 2-3 days and the size of the tumor was calculated as a*b*b/2. The mice and tumors were weighed and recorded every day. […] The tumor volume and the survival rate of mice were recorded every 2 days. […]

[3] = tested on: CD8+ T cells; assay: ELISPOTs detection of IFN-γ secretion by peptide-specific CD8+ T cells; type: cell-based, human; conditions: ratio of spot numbers; >2 immunogenic

TLISSLMPI [tumor antigen peptide from CACNA1H mutation, position 1428 arginine to methionine]
Survival period of mice [1]: prolonged the survival period of mice | Tumor growth [1]: effectively inhibited tumor growth | Tumor-suppressing effect [2]: significant tumor-suppressing effects | Survival period of mice ([2]; vs wild-type peptide group): prolonged the survival period of mice | Fold (tested/wild-type) [3]: 9.27
